Source: PMC8231969, “Characterization of Two NMN Deamidase Mutants as Possible Probes for an NMN Biosensor” (International Journal of Molecular Sciences, 2021)
Where two headings read alike, the source gives them in different places.

Experiments:
S29A PncC [1] = target: T1, S29A PncC (Escherichia coli, UniProt P0A6G3, S29A); type: binding, E. coli
T1 construct: made in house; host or cells: E. coli BL21(DE3)
Description: (§1) Experimental data were processed using the OriginPro 8.0 (OriginLab Corporation, Northampton, MA, USA). A non-linear curve analysis (Hill1 plot) was used for plotting the F0/F values in function of the metabolite concentration, to obtain the Kd value.

WT PncC (NMN deamidase) = system: T2, WT PncC (NMN deamidase); assay: Fluorescence-based thermal shift binding assay, wild-type PncC; design: species or system E. coli; settings: 1 mM NMN
T2 construct: made in house; host or cells: E. coli BL21(DE3)
Experimental: (§2) Protein melting temperature (Tm) was determined by fluorescence-based thermal shift assay using fluoroprobe SYPRO Orange dye (Invitrogen, Waltham, MA, USA). The assay was performed in a RotorGene 3000 real-time PCR (Corbett, Biocompare, San Francisco, CA, USA). The assay mixture contained 50 mM Hepes/NaOH, pH 7.5, 300 mM NaCl, 1 mM TCEP, 1 μM protein, Sypro orange at 10-fold dilution from a 5000-fold stock, and the various ligands at the tested concentrations, in a final volume of 25 μL. The mixtures were pre-heated at 40 °C for 5 s, then heated to 50 °C in 1 s, and finally heated from 50 to 99 °C with a heating-up rate of 0.5 °C every 5 s. The fluorescence intensity was measured with Ex/Em: 470/585 nm. The melting temperature was determined by taking the maximum point of the slope-derivative peak. Kd values were determined by plotting the percentage of unfolded proteins as a function of nucleotide concentration at a fixed temperature, after normalization of the unfolding curves. Fitting of the data was performed using the equations reported in [34]. Three independent experiments were carried out and values were reported as the means ± standard deviation.

Y56A PncC = system: T3, Y56A PncC; assay: Fluorescence-based thermal shift binding assay, Y56A PncC; design: species or system E. coli
T3 construct: made in house; host or cells: E. coli BL21(DE3)
Experimental: as §2

K61Q PncC [2] = target: T4, K61Q PncC (Escherichia coli, UniProt P0A6G3, K61Q); assay: biochemical; type: binding, E. coli
T4 construct: made in house; host or cells: E. coli BL21(DE3)

S29A PncC [3] = target: T1, S29A PncC; assay: biochemical; type: binding, E. coli
R142A PncC = system: T5, R142A PncC; assay: Fluorescence-based thermal shift binding assay, R142A PncC; design: species or system E. coli
T5 construct: made in house; host or cells: E. coli BL21(DE3)
Experimental: as §2

K61Q PncC [4] = target: T4, K61Q PncC; type: binding, E. coli
Experimental: as §1
Percentage of the K61Q protein that would exist in complex with NMN in a cellular setting was calculated based on the Kd value, by using the equation: %=100/1+Kd/[NMN]

[5] = system: glutamine binding protein (GlnBP); settings: GlnBP 3 µM, 96 µM nucleotide
Experimental: Steady-state measurements were performed using an ISS_K2 fluorometer (ISS, Urbana-Champaign, IL, USA), equipped with a one-cell temperature-controlled sample holder. […] Excitation and emission slit widths were fixed at 0.5 and 1.0 nm, respectively. […] The nucleotides were added to reach the indicated final concentration (from 0.18 to 96 µM) with an incubation interval of 10 min. Triplicate readings were done for each experimental point. Experiments were repeated three times (for NMN and NaMN) or twice (for all the other metabolites). Controls experiments were performed using the E. coli Glutamine Binding Protein (GlnBP, 3µM), with increasing concentration of NMN or NaMN, at the same conditions.
Percentages of reduction of fluorescence intensities compared to buffer, were calculated as follow: (normalized fluorescence in presence of analyte at a given [µM]/normalized fluorescence in presence of corresponding volume of buffer) × 100.

[6] = Thermal stability (melting temperature) of PncC proteins without ligand; type: physicochemical; settings: absence of NMN
Experimental: as §2

## NC(=O)c1ccc[n+]([C@@H]2O[C@H](COP(=O)([O-])O)[C@@H](O)[C@H]2O)c1 [NMN, nicotinamide mononucleotide]
S29A PncC [1]; S29A PncC, Trp fluorescence
  Hill coefficient (nH): 0.98± 0.1
S29A PncC [1]; nucleotide 0.185 µM
  S29A PncC fluorescence quenching (%) vs buffer: 0.48%
S29A PncC [1]; nucleotide 0.375 µM
  S29A PncC fluorescence quenching (%) vs buffer: 0.58%
S29A PncC [1]; nucleotide 0.75 µM
  S29A PncC fluorescence quenching (%) vs buffer: 2.58%
S29A PncC [1]; nucleotide 3 µM
  S29A PncC fluorescence quenching (%) vs buffer: 17.42%
S29A PncC [1]; nucleotide 6 µM
  S29A PncC fluorescence quenching (%) vs buffer: 17.55%
S29A PncC [1]; nucleotide 12 µM
  S29A PncC fluorescence quenching (%) vs buffer: 27.06%
S29A PncC [1]; nucleotide 24 µM
  S29A PncC fluorescence quenching (%) vs buffer: 37.52%
S29A PncC [1]; nucleotide 48 µM
  S29A PncC fluorescence quenching (%) vs buffer: 46.79%
WT PncC (NMN deamidase)
  Tm (+NMN): 92.2 °C
  ΔTm: 6.1 °C
Y56A PncC; 1 mM NMN
  Tm (+NMN): 83.6 °C
Y56A PncC; 1.0 mM NMN
  Effect of NMN on Tm: not affected
K61Q PncC [2]; K61Q PncC, 1 mM NMN
  Tm (+NMN): 86.2 °C
K61Q PncC [2]; read-out: ΔTm
  ΔTm at 1000 µM: 18.7 °C
S29A PncC [3]; S29A PncC, 1 mM NMN
  Tm (+NMN): 95.5 °C
S29A PncC [3]; read-out: ΔTm
  ΔTm at 1000 µM: 10 °C
R142A PncC; 1 mM NMN
  Tm (+NMN): 52.4 °C
R142A PncC; 1.0 mM NMN
  Effect of NMN on Tm: not affected
K61Q PncC [4]; K61Q PncC, Trp fluorescence
  Hill coefficient (nH): 1.3±0.2
K61Q PncC [4]; nucleotide 0.185 µM
  K61Q PncC fluorescence quenching (%) vs buffer: 1.09%
K61Q PncC [4]; nucleotide 0.375 µM
  K61Q PncC fluorescence quenching (%) vs buffer: 1.84%
K61Q PncC [4]; nucleotide 0.75 µM
  K61Q PncC fluorescence quenching (%) vs buffer: 3.19%
K61Q PncC [4]; nucleotide 1.5 µM
  K61Q PncC fluorescence quenching (%) vs buffer: 4.87%
K61Q PncC [4]; nucleotide 3 µM
  K61Q PncC fluorescence quenching (%) vs buffer: 6.26%
K61Q PncC [4]; nucleotide 6 µM
  K61Q PncC fluorescence quenching (%) vs buffer: 8.11%
K61Q PncC [4]; nucleotide 12 µM
  K61Q PncC fluorescence quenching (%) vs buffer: 12.12%
K61Q PncC [4]; nucleotide 24 µM
  K61Q PncC fluorescence quenching (%) vs buffer: 20.07%
K61Q PncC [4]; nucleotide 48 µM
  K61Q PncC fluorescence quenching (%) vs buffer: 38.03%
[5]
  quenching of fluorescence of GlnBP: 4.3%

## O=C(O)c1ccc[n+]([C@@H]2O[C@H](COP(=O)([O-])O)[C@@H](O)[C@H]2O)c1 [NaMN, nicotinic acid mononucleotide]
S29A PncC [1]; nucleotide 0.185 µM
  S29A PncC fluorescence quenching (%) vs buffer: 1.79%
S29A PncC [1]; nucleotide 0.375 µM
  S29A PncC fluorescence quenching (%) vs buffer: 2.56%
S29A PncC [1]; nucleotide 0.75 µM
  S29A PncC fluorescence quenching (%) vs buffer: 6.47%
S29A PncC [1]; nucleotide 1.5 µM
  S29A PncC fluorescence quenching (%) vs buffer: 20.83%
S29A PncC [1]; nucleotide 3 µM
  S29A PncC fluorescence quenching (%) vs buffer: 30.74%
S29A PncC [1]; nucleotide 6 µM
  S29A PncC fluorescence quenching (%) vs buffer: 30.87%
S29A PncC [1]; nucleotide 12 µM
  S29A PncC fluorescence quenching (%) vs buffer: 40.52%
S29A PncC [1]; nucleotide 24 µM
  S29A PncC fluorescence quenching (%) vs buffer: 47.93%
S29A PncC [1]; nucleotide 48 µM
  S29A PncC fluorescence quenching (%) vs buffer: 52.28%
K61Q PncC [2]; K61Q PncC, at 70 °C
  Kd (thermal shift): not possible to determine Kd
K61Q PncC [4]; K61Q PncC, at 25 °C
  apparent Kd (Trp fluorescence): not possible to determine Kd
K61Q PncC [4]; nucleotide 0.185 µM
  K61Q PncC fluorescence quenching (%) vs buffer: 0.71%
K61Q PncC [4]; nucleotide 0.375 µM
  K61Q PncC fluorescence quenching (%) vs buffer: 1.11%
K61Q PncC [4]; nucleotide 0.75 µM
  K61Q PncC fluorescence quenching (%) vs buffer: 2.05%
K61Q PncC [4]; nucleotide 1.5 µM
  K61Q PncC fluorescence quenching (%) vs buffer: 2.12%
K61Q PncC [4]; nucleotide 3 µM
  K61Q PncC fluorescence quenching (%) vs buffer: 2.82%
K61Q PncC [4]; nucleotide 6 µM
  K61Q PncC fluorescence quenching (%) vs buffer: 2.80%
K61Q PncC [4]; nucleotide 12 µM
  K61Q PncC fluorescence quenching (%) vs buffer: 4.14%
K61Q PncC [4]; nucleotide 24 µM
  K61Q PncC fluorescence quenching (%) vs buffer: 4.9%
K61Q PncC [4]; nucleotide 48 µM
  K61Q PncC fluorescence quenching (%) vs buffer: 7.14%
K61Q PncC [4]; nucleotide 96 µM
  K61Q PncC fluorescence quenching (%) vs buffer: 10.68%
[5]
  quenching of fluorescence of GlnBP: 4.3%

B1: S29A PncC: catalytically inactive S29A mutant of E. coli NMN deamidase PncC (protein)
chain: MTDSELMQLSEQVGQALKARGATVTTAEACTGGWVAKVITDIAGSSAWFERGFVTYSNEAKAQMIGVREETLAQHGAVSEPVVVEMAIGALKAARADYAVSISGIAGPDGGSEEKPVGTVWFAFATARGEGITRRECFSGDRDAVRRQATAYALQTLWQQFLQNT
modifications: left off: His tag (from the HisTrap HP purification; vector pCA24N), end not stated, state not stated
[6]
  Tm (melting temperature of the protein): 85.5 °C

B2: WT PncC: wild type NMN deamidase (PncC) from E. coli, recombinant (protein)
chain: MTDSELMQLSEQVGQALKARGATVTTAESCTGGWVAKVITDIAGSSAWFERGFVTYSNEAKAQMIGVREETLAQHGAVSEPVVVEMAIGALKAARADYAVSISGIAGPDGGSEEKPVGTVWFAFATARGEGITRRECFSGDRDAVRRQATAYALQTLWQQFLQNT
modifications: left off: His tag (from the HisTrap HP purification; vector pCA24N), end not stated, state not stated
notes: wild type NMN deamidase (PncC) from E. coli, recombinant
[6]
  Tm (melting temperature of the protein): 86.1 °C

B3: K61Q PncC: catalytically inactive K61Q mutant of E. coli NMN deamidase PncC (protein)
chain: MTDSELMQLSEQVGQALKARGATVTTAESCTGGWVAKVITDIAGSSAWFERGFVTYSNEAQAQMIGVREETLAQHGAVSEPVVVEMAIGALKAARADYAVSISGIAGPDGGSEEKPVGTVWFAFATARGEGITRRECFSGDRDAVRRQATAYALQTLWQQFLQNT
modifications: left off: His tag (from the HisTrap HP purification; vector pCA24N), end not stated, state not stated
[6]
  Tm (melting temperature of the protein): 67.5 °C
